This experiment addresses T1, Mannose-6-phosphate isomerase (Homo sapiens, UniProt P34949).
T1 sequence (P34949 whole entry): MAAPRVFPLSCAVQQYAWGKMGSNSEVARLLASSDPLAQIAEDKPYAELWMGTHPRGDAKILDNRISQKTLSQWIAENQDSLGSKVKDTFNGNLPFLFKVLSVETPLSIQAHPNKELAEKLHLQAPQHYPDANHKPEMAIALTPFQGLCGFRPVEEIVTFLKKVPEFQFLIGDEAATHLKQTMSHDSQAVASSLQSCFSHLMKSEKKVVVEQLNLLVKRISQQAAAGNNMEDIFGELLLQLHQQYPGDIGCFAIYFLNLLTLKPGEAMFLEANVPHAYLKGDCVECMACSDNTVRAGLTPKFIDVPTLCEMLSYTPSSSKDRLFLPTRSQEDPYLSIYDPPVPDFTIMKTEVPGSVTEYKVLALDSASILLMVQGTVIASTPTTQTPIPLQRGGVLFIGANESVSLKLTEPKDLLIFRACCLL
Briefly: Inhibition of human purified phosphomannose isomerase.

For orientation: IC50 means the concentration at which inhibition is half-maximal.

With `C=CCn1c(=O)c(=Cc2cc(OC)c(OC)c(OC)c2)s/c1=C(/C#N)c1nc2ccccc2n1C` [2-(1-methyl-2-benzimidazolyl)-2-[4-oxo-3-prop-2-enyl-5-[(3,4,5-trimethoxyphenyl)methylidene]-2-thiazolidinylidene]acetonitrile], the IC50 was greater than 10 µM. The figure for `Oc1c(-c2ccccc2)sc2ccccc12` [2-phenyl-1-benzothiophen-3-one] is greater than 10 µM.

The record behind these values is BindingDB's records for doi:10.1021/jm101401a (Sanford-Burnham Medical Research Institute, 2011).
